Laboratory results published in BindingDB's records for patent US11649233 (Nanjing Transthera Biosciences, 2023).

Biological target: T1, Amine oxidase [copper-containing] 3 (Homo sapiens, UniProt Q16853)
T1 sequence (Q16853 whole entry): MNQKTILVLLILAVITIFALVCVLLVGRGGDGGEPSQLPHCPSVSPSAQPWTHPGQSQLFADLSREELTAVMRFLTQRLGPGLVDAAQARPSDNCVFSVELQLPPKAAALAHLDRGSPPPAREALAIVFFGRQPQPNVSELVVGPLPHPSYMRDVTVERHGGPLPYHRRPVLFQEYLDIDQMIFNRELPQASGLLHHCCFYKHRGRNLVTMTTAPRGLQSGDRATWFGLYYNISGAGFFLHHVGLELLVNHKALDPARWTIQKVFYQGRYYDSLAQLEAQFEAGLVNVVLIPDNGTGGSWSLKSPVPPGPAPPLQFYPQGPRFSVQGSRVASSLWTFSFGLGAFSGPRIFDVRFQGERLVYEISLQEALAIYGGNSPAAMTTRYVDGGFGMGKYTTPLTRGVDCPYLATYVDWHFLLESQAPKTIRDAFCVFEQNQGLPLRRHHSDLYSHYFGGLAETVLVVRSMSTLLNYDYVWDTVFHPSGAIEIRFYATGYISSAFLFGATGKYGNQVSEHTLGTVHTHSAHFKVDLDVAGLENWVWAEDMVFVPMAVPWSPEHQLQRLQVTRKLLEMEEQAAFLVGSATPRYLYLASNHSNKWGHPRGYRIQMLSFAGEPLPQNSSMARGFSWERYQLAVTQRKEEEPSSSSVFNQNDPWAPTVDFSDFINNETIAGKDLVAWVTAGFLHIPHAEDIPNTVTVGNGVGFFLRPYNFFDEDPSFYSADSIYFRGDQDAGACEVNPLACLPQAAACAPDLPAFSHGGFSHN
Test: Inhibition Activity of the Compound on rhVAP-1 and MAO-A/B
Protocol: Test substances: the compounds of the present invention shown in Table 1 and prepared according to the methods of the examples 1. Inhibition Activity of the Compounds on the rhVAP-1 Enzyme (1) Instrument, consumable and reagent Multifunctional microplate reader (MD, FlexStation 3), black bottom-impermeable 96-well plate (Corning), rhVAP-1 (PeproTech) (2) Preparation of Compound Concentration Gradient Solutions An appropriate amount of the test compound was dissolved in DMSO to 10 mM and stored. Before the experiment, an appropriate amount of 10 mM test compound mother liquor was diluted to 10 μM solution with DMSO. Then 3-fold gradient dilution with DMSO was performed, and 10 concentration gradients were formed.(3) Preparation of Enzyme Solutions. An appropriate amount of protein diluent was added to the rhVAP-1 powder to obtain 1 mg/mL of the mother liquor for storage. […] Then 50 μL of 2×substrate mixed solution was added to each well, and immediately the detection was performed with the microplate reader in a condition of an exciting light at 565 nm, an emitting light at 590 nm, the fluorescence intensity for detecting each well of 5 minutes/run, and a total detection time of 25 minutes.

Compound `CC(C)N1CCc2cc(OC/C(=C/F)CN)ccc2C1=O` [US11649233, Compound 4] has an IC50 of 59 nM.
